According to patent US20220281846A1, “COMPOUNDS AND COMPOSITIONS FOR THE TREATMENT OF RESPIRATORY DISEASES” (THE UNIVERSITY OF MELBOURNE, priority 2018, published 2022):

Experiments:
[1] = assay type: in vitro ADME, mouse
Experimental: Incubation: The metabolic stability assay was performed by incubating each test compound in human liver microsomes at 37° C. and a protein concentration of 0.4 mg/mL. The metabolic reaction was initiated by the addition of an NADPH-regenerating system and quenched at various time points over a 60 minute incubation period by the addition of acetonitrile containing diazepam as internal standard. Control samples (containing no NADPH) were included (and quenched at 2, 30 and 60 minutes) to monitor for potential degradation in the absence of cofactor. The human liver microsomes used in this experiment were supplied by XenoTech, lot #1410230. Microsomal incubations were performed at a substrate concentration of 1 μM. Data analysis: Species scaling factors from Ring et al. (2011) JPharmSci, 100:4090-4110 were used to convert the in vitro CLint (μL/min/mg) to an in vivo CLint(mL/min/kg). Hepatic blood clearance and the corresponding hepatic extraction ratio (EH) were calculated using the well stirred model of hepatic extraction in each species, according to the “in vitro T1/2” approach described in Obach (1999) DrugMetab. Dispos. 27:1350-1359. The EH was then used to classify compounds as low(<0.3), intermediate (0.3-0.7), high (0.7-0.95) or very high (>0.95) extraction compounds. Predicted in vivo clearance values have not been corrected for microsomal or plasma protein binding. Species scaling calculations are based on two assumptions: 1) NADPH-dependent oxidative metabolism predominates over other metabolic routes (i.e. direct conjugative metabolism, reduction, hydrolysis, etc.), and; 2) rates of metabolism and enzyme activities in vitro are truly reflective of those that exist in vivo. […] [table]

[2] = In vivo determination of whole blood-to-plasma ratio; set-up: species or system male C57BL/6 mice; conditions: mouse blood, 15 min and 1 h post-dose
Experimental: Blood was collected from mice at 15 min and 1 h post-dose of each compound for the purposes of determining the whole blood-to-plasma (B/P) ratio. […] No adverse reactions or compound-related side effects observed in any mice during the 24 h sampling period after dosing any of the compounds. Plasma samples were also taken from 2 mice that were not administered test compound for use as analytical tool.
Analysis of B/P partitioning samples was conducted similarly and quantified against calibration standards samples prepared using a 1:1 v/v mixture of blank mouse blood and plasma. The matrix matched B/P partitioning samples and standards were processed using protein precipitation with acetonitrile as described above.
In Vivo Determination of Whole Blood-to-Plasma Ration
Blood was collected via cardiac puncture (whilst under gaseous isoflurane anaesthesia) into tubes containing heparin and stabilisation cocktail. The haematocrit was determined via centrifugation (13000×g for 4 min using a Clemets® Microhematocrit centrifuge and Safecap® Plain Self-sealing Mylar Wrapped capillary tubes), and values ranged from 38% to 40% for PF670462 and 38% to 44% for ZH3-138. […]
The B/P ratio was obtained by dividing the average measured concentration in blood by the average concentration measured in plasma following centrifugation of whole blood.

[3] = molecular target: T1, ERBB4/HER4 (Homo sapiens, UniProt Q15303); test: Kinase inhibition assay (HotSpot), ERBB4/HER4; assay type: biochemical; conditions: 10 μM ATP, 10-dose IC50 mode; read-out: Compound IC50 (M) ERBB4/HER4
T1 construct: purchased Reaction Biology Corp

[4] = molecular target: T2, MINK/MINK1 (Homo sapiens, UniProt Q8N4C8); test: Kinase inhibition assay (HotSpot), MINK/MINK1; assay type: biochemical; conditions: 10 μM ATP, 10-dose IC50 mode; read-out: Compound IC50 (M) MINK/MINK1
T2 construct: purchased Reaction Biology Corp

[5] = tested on: interleukin-1α (IL1α)-mediated cytokine production by the lung adenocarcinoma cell line A549; test: Cellular assay (A549) against IL1α-mediated cytokine production; assay type: cell-based, human; conditions: serum starved A549 cells, compound 30 min prior to IL-1α (1 ng/ml) for 24 h, ELISA
Experimental: Cellular Assay (A549 Human Lung Adenocarcinoma Cells) Assessing Effect of ZH3-138, ZH3-126 and PF670462 Against IL1α-Mediated Cytokine Production
The anti-inflammatory potential of selected compounds was examined by establishing the effects on interleukin-1α (IL1α)-mediated cytokine production by the lung adenocarcinoma cell line A549. Serum starved A549 cells were treated with various concentrations of the relevant CK1δ inhibitor (PF670462, ZH3-126 and ZH3-138) 30 min prior to IL-1α (1 ng/ml) for 24 h. Supernatant was collected and concentration of IL-6, IL-8 and GM-CSF was detected by ELISA. Data are presented as mean±SEM across three replicates in FIG. 7 (A: IL-6; B: IL-8 and C: GM-CSF).

T2 sequence (Q8N4C8 whole entry): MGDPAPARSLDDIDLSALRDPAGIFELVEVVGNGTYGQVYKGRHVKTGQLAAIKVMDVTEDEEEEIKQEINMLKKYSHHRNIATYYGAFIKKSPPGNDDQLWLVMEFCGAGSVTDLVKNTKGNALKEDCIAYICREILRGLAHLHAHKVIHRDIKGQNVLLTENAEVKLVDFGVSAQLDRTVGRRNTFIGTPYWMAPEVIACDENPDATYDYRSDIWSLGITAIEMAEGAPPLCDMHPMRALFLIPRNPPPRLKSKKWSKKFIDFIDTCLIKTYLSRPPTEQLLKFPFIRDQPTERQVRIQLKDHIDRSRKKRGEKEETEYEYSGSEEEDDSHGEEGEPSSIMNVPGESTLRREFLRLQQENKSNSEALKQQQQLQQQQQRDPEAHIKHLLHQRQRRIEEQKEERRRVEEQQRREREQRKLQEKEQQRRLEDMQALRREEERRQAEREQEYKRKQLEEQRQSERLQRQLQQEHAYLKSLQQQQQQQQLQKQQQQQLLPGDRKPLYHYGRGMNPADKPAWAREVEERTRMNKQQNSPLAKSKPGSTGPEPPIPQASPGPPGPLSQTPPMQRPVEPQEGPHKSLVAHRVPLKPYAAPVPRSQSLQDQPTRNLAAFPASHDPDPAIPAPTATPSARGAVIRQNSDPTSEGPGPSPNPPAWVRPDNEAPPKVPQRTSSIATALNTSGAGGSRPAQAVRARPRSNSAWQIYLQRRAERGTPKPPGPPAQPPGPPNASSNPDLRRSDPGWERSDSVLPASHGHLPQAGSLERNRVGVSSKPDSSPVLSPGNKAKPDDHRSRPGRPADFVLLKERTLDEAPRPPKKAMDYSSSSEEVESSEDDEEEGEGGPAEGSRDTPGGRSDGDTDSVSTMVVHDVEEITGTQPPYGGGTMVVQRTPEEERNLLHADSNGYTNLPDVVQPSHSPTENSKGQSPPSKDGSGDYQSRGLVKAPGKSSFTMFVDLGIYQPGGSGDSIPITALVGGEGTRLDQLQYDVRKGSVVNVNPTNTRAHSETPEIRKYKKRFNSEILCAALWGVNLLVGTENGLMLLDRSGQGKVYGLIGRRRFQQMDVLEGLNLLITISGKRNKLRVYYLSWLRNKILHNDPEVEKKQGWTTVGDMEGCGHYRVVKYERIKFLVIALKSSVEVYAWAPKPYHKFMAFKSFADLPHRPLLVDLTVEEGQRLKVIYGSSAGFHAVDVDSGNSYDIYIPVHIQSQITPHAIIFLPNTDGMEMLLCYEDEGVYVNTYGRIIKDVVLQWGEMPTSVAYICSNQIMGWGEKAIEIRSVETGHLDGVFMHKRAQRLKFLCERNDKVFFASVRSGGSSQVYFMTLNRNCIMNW
T1 sequence (Q15303 26-1308): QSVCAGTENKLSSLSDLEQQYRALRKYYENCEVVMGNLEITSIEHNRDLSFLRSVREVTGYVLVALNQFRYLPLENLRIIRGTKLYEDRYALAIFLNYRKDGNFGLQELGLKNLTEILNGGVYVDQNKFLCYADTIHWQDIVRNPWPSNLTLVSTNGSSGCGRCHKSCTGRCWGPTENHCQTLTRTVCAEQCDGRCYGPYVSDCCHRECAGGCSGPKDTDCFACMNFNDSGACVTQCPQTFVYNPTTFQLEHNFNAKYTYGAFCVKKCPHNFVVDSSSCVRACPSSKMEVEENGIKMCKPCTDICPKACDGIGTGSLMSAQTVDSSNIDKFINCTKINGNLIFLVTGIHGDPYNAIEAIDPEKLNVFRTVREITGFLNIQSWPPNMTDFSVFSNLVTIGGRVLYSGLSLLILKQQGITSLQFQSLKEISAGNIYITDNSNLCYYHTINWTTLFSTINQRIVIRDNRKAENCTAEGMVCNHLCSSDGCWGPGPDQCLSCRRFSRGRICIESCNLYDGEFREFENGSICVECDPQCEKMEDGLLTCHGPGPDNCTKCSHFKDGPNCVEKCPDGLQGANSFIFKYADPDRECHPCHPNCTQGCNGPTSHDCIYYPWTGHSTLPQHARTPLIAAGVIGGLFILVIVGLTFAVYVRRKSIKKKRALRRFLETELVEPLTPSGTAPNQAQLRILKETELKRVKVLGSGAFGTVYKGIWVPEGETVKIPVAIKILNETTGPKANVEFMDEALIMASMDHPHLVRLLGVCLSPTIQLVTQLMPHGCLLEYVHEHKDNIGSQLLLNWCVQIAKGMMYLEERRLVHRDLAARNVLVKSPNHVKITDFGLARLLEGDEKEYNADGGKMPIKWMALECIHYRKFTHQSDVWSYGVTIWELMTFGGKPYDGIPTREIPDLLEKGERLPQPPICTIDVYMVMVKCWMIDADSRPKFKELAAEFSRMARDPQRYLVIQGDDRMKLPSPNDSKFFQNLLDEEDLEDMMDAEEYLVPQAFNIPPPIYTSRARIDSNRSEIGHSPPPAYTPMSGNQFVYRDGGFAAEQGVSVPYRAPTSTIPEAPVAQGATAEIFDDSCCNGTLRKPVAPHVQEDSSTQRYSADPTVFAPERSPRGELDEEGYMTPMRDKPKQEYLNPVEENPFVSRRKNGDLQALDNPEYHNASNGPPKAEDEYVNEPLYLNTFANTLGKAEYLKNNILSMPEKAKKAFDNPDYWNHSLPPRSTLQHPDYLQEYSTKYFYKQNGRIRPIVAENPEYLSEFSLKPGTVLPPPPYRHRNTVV

Row | SMILES | Predicted CLblood [1] [mL/min/kg] | Predicted CLint, in vivo [1] [mL/min/kg] | Predicted EH (hepatic extraction ratio) [1] | CLint, in vitro ([1]; mouse, microsomes) [μL/min/mg protein] | T1/2 ([1]; mouse, microsomes) [min] | apparent whole blood-to-plasma ratio (B/P) [2] | IC50 [3] [M] | IC50 [4] [M] | blood plasma ratio ([2]; male, C57BL/6, whole blood and plasma, read-out: apparent whole blood-to-plasma ratio (B/P)) | supernatant concentrations of inflammatory biomarkers (IL-6, IL-8, GM-CSF) [5]
1 | Nc1nccc(-c2c(-c3ccc(F)cc3)ncn2C2CCCCC2)n1 [PF670462, reference compound] | 108 | 1105 | 0.90 | 428 | 4 | 1.0 |  |  |  | 
2 | Nc1nccc(-c2c(-c3ccc(F)cc3)ncn2C2CCC(F)(F)CC2)n1 [ZH3-138, 4-(1-(4,4-Difluorocyclohexyl)-4-(4-fluorophenyl)-1H-imidazol-5-yl)pyrimidin-2-amine] |  |  |  |  |  |  | 9.98e-06 | 1.15e-06 | 0.91 | ability to reduce supernatant concentrations of other inflammatory biomarkers
